Measured values published in patent US8372848B2, “Melanin-concentrating hormone receptor antagonists and methods of use” (Mixture Sciences, Inc., priority 2004, dated 2013).

How the values were obtained:
rat MCH1R = rat MCH1R (Rattus norvegicus, UniProt P97639); experiment: MCH-induced Ca2+ mobilization (FLIPR) in HEK 293T cells expressing rat MCH1R; format: cell-based; settings: HEK 293T cell expressing rat MCH1R; read-out: EC50 for stimulation of Ca2+ mobilization
rats = experiment: MCH-induced food intake after icv administration; format: in vivo, rat; settings: 2 nmol icv
Experimental: To determine inhibitory effects of TPI 1361-17 on MCH-induced food intake, rats were habituated to a wire bottom cage for more than 3 weeks prior to the experiment. Experiments were carried out from 6 a.m. to 7 a.m. when rats were satiated. […] On the other hand, five nmol of TPI 1361-17 suppressed cumulative food intake by 75% even at 4h (FIG. 5B).
To determine the effects of TPI 1361-17 on MCH-induced food intake, rats were randomly divided into three groups: 1) TPI 1361-17 (dissolved in DMSO) and 2 nmol of MCH; 2) MCH 2 nmol, 3) ACSF. Each mixture contained a DMSO equivalent concentration to that of the antagonist solution (up to 5% (v/v)). Ten μl of each solution was administered into lateral ventricle for 2 minutes. The injections were done between 7:00-8:00 a.m., and food intake was monitored for 4 h after the injection.
For animal studies, adult male Sprague-Dawley rats weighing 200-300g were obtained from Charles River Laboratories (Wilmington, Mass.), bearing a 23-gauge stainless steel cannula placed into the right lateral ventricle. Rats were housed individually and maintained on a 12 h light-dark cycle (6:00 am-6:00 pm light) with free access to tap water and rat chaw (PROLAB RMH 2500, containing 23.0% protein, 4.5% fat, gross energy 4.5 kcal/g. PMI nutrition international, LLC. Brentwood, Mo.). Prior to all studies, rats were handled and habituated for 7 days, and 10 μl of artificial cerebrospinal fluid (ACSF: NaCl 124, KCl 5, CaCl2 2.4 MgSO4 2, KH2PO4 1.25, NaHCO3 26 and glucose 10, in mM) was injected through the cannula to minimize stress effects at the time of the experiment. Cannula placement was confirmed in all animals by evaluating the response to 50 ng of angiotensin II. Only animals drinking more than 5 ml of water in 1 h were used in feeding studies.

Sequence of rat MCH1R (P97639 whole entry): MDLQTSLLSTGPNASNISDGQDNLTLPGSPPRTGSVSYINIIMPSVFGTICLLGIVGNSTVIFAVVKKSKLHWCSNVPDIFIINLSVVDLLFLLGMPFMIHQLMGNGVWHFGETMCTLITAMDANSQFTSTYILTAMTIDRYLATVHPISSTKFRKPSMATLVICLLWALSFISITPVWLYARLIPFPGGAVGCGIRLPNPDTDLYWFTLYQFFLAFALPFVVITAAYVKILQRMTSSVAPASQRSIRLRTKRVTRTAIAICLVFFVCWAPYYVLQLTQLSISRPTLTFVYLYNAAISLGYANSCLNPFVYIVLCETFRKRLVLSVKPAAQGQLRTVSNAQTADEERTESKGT

CSCC[C@@H]1NC(=O)[C@@H](NC(=O)[C@H](CCCNC(=N)N)NC(=O)[C@H](CC(C)C)NC(=O)[C@H](CCSC)NC(=O)[C@H](CC(=O)O)NC(=O)[C@H](Cc2ccccc2)NC(=O)[C@@H](N)CC(=O)O)CSSC[C@@H](C(=O)N[C@@H](Cc2c[nH]c3ccccc23)C(=O)N[C@@H](CCC(N)=O)C(=O)N[C@H](C(=O)O)C(C)C)NC(=O)[C@@H]2CCCN2C(=O)[C@H](CCCNC(=N)N)NC(=O)[C@H](Cc2ccc(O)cc2)NC(=O)[C@H](C(C)C)NC(=O)[C@H](CCCNC(=N)N)NC(=O)CNC(=O)[C@H](CC(C)C)NC1=O [MCH, reference compound]
EC50 (rat MCH1R): 0.9 nM | Feeding in satiated rats (rats): induced rapid and robust feeding
